Patent US20050025841A1, “Therapeutic methods using herbal compositions” (priority 2001, published 2005)

What was measured:
[1] = tested on: polychromatic erythrocytes in the mouse bone marrow; conditions: CTX 30 mg/kg alone; 8000 cells
breast cancer = conditions: women at high risk of breast cancer, versus placebo; cited from earlier work

SMILES | Micronucleus Rate [1] [%0] | decrease in invasive cancer (breast cancer) [%] | decrease in non-invasive breast cancer (breast cancer) [%]
O=P1(N(CCCl)CCCl)NCCCO1 (stereo not drawn) [CTX, cyclophosphamide] | 17.3 ± 1.1 |  | 
CC/C(=C(\c1ccccc1)c1ccc(OCCN(C)C)cc1)c1ccccc1 [Tamoxifen] |  | 49 | 50
